Results as given in patent US20090068290A1, “BIFEPRUNOX DOSES FOR TREATING SCHIZOPHRENIA” (priority 2006, published 2009).

Assays:
Assay type in all cases: in vivo, human
[1] = tested on: adult subjects with schizophrenia; assay: PANSS general psychopathology subscale score, Clinical Study Two; conditions: for Change from Baseline in General Psychopathology Subscale Score, Mean (SD) / Change from Baseline in General Psychopathology Subscale Score, Median / Trt Effect (bifeprunox - placebo), General Psychopathology Subscale Score / mean change (SD) from Baseline to Endpoint in PANSS general psychopathology subscale score: LOCF; for Change from Baseline in General Psychopathology Subscale Score, Mean (SD) / Change from Baseline in General Psychopathology Subscale Score, Median / Trt Effect (bifeprunox - placebo), General Psychopathology Subscale Score: ITT population; for Trt Effect (bifeprunox - placebo), General Psychopathology Subscale Score: ANCOVA; for PANSS general psychopathology subscale score, treatment effect (bifeprunox—placebo): Endpoint LOCF; for mean change (SD) from Baseline to Endpoint in PANSS general psychopathology subscale score: ITT
Experimental: Rating scale assessments were performed weekly, except for week 5, to measure the change from baseline to endpoint of the PANSS total score. Other assessments included: PANSS positive symptom subscale score, PANSS negative symptom subscale score, PANSS general pschopathology subscale score, BPRS total score, BPRS psychosis score, the CGI-S score, the CGI-I score, responder rates based on the PANSS total score, and the Calgary Depression Scale for Schizophrenia (CDSS). […]
Subjects who completed this study had the option to continue in the long-term. […] Risperidone-treated subjects were titrated from 2 mg to 6 mg daily over a three-day period and were subsequently maintained at 6 mg/day for the remainder of the treatment period. […] Blood samples were also obtained at Screening/Baseline, Week 3, and Week 6 for clinical laboratory assessments.

[2] = tested on: adult subjects with schizophrenia; assay: PANSS positive symptom subscale score, Clinical Study Three; conditions: LOCF, ITT; for PANSS Positive Symptom Subscale Score, Trt Effect (bifeprunox—placebo): ANCOVA
Source text: (§1) SECONDARY OBJECTIVES To assess the efficacy of bifeprunox in treating schizophrenia using the Positive Symptom sub-scale score of the PANSS, the Negative Symptom sub-scale score of the PANSS, the General Psychopathology sub-scale of the PANSS, Brief Psychiatric Rating Scale (BPRS) total score derived from the PANSS, BPRS psychosis score derived from the PANSS, the Clinical Global Impression Severity of Illness score (CGI-S), the Clinical Global Impression Improvement score (CGI-I), CGI-I responder rate, PANSS responder rate based on the PANSS total score, Calgary Depression Scale for Schizophrenia (CDSS), and Subject Satisfaction rating.
(§2) There were four treatment arms in this study, approximately 144 subjects per arm. […] After completing the Single-Blind Placebo Lead-in Period of at least three days, bifeprunox-treated subjects were titrated from 0.25 mg up to 20 mg/day or 30 mg/day according to a standardized titration scheme over a seven- or eight-day period, respectively. When the assigned dose was reached, subjects were maintained at that dose for the remainder of the six week treatment period. […] Subjects were hospitalized (if not already inpatients) after eligibility for study entry was verified, starting from the Screening Visit until at least 10 days after Baseline. Subjects could be hospitalized longer than 10 days if considered medically necessary by the Investigator. Rating scale assessments for efficacy and abnormal movement disorders were done weekly except for Week 5. […] Subject satisfaction with study medication was assessed at Week 6.

[3] = tested on: adult subjects with schizophrenia; assay: PANSS negative symptom subscale score, Clinical Study Three; conditions: for Change from Baseline in PANSS Negative Symptom Subscale Score, Mean (SD) / Change from Baseline in PANSS Negative Symptom Subscale Score, Median / Trt Effect (bifeprunox - placebo), PANSS Negative Symptom Subscale Score: ITT population; for Trt Effect (bifeprunox - placebo), PANSS Negative Symptom Subscale Score: ANCOVA; for PANSS Negative Symptom subscale score, treatment effect (bifeprunox—placebo): Endpoint LOCF
Source text: as §1, §2

[4] = Bifeprunox 30 mg, Week 6/Endpoint
[5] = Bifeprunox 40 mg, Week 6/Endpoint
[6] = Bifeprunox 20 mg, Week 6/Endpoint
[7] = Bifeprunox 20 mg, Week 6/Endpoint, LOCF
[8] = Bifeprunox 30 mg, Week 6/Endpoint, LOCF

O=c1[nH]c2cccc(N3CCN(Cc4cccc(-c5ccccc5)c4)CC3)c2o1 [Bifeprunox, 7-[4-([1,1′-biphenyl]-3-ylmethyl)-1-piperazinyl]-2(3H)-benzoxazolone]
Change from Baseline in General Psychopathology Subscale Score, Mean (SD) ([1]; Bifeprunox 30 mg, Week 1): −2.7 (6.4)
Change from Baseline in General Psychopathology Subscale Score, Median ([1]; Bifeprunox 30 mg, Week 1): −2
Change from Baseline in General Psychopathology Subscale Score, Mean (SD) ([1]; Bifeprunox 30 mg, Week 2): −4.9 (8.1)
Change from Baseline in General Psychopathology Subscale Score, Median ([1]; Bifeprunox 30 mg, Week 2): −4
Change from Baseline in General Psychopathology Subscale Score, Mean (SD) ([1]; Bifeprunox 30 mg, Week 3): −5.8 (9.2)
Change from Baseline in General Psychopathology Subscale Score, Median ([1]; Bifeprunox 30 mg, Week 3): −5
Change from Baseline in General Psychopathology Subscale Score, Mean (SD) ([1]; Bifeprunox 30 mg, Week 4): −6.1 (9.7)
Change from Baseline in General Psychopathology Subscale Score, Median ([1]; Bifeprunox 30 mg, Week 4): −5
Change from Baseline in General Psychopathology Subscale Score, Mean (SD) [1, 4]: −6.0 (10.2)
Change from Baseline in General Psychopathology Subscale Score, Median [1, 4]: −5
Trt Effect (bifeprunox - placebo), General Psychopathology Subscale Score [1, 4]: −2.5
Change from Baseline in General Psychopathology Subscale Score, Mean (SD) ([1]; Bifeprunox 40 mg, Week 1): −2.7 (5.9)
Change from Baseline in General Psychopathology Subscale Score, Median ([1]; Bifeprunox 40 mg, Week 1): −2
Change from Baseline in General Psychopathology Subscale Score, Mean (SD) ([1]; Bifeprunox 40 mg, Week 2): −3.4 (7.9)
Change from Baseline in General Psychopathology Subscale Score, Median ([1]; Bifeprunox 40 mg, Week 2): −3
Change from Baseline in General Psychopathology Subscale Score, Mean (SD) ([1]; Bifeprunox 40 mg, Week 3): −3.8 (8.8)
Change from Baseline in General Psychopathology Subscale Score, Median ([1]; Bifeprunox 40 mg, Week 3): −3
Change from Baseline in General Psychopathology Subscale Score, Mean (SD) ([1]; Bifeprunox 40 mg, Week 4): −3.4 (9.3)
Change from Baseline in General Psychopathology Subscale Score, Median ([1]; Bifeprunox 40 mg, Week 4): −2
Change from Baseline in General Psychopathology Subscale Score, Mean (SD) [1, 5]: −3.8 (10.1)
Change from Baseline in General Psychopathology Subscale Score, Median [1, 5]: −3
Trt Effect (bifeprunox - placebo), General Psychopathology Subscale Score [1, 5]: −0.7
PANSS general psychopathology subscale score, treatment effect (bifeprunox—placebo) ([1]; bifeprunox 30 mg): −2.5
mean change (SD) from Baseline to Endpoint in PANSS general psychopathology subscale score ([1]; bifeprunox 30 mg): −6.0 (10.2)
PANSS general psychopathology subscale score, treatment effect (bifeprunox—placebo) ([1]; bifeprunox 40 mg): −0.7
mean change (SD) from Baseline to Endpoint in PANSS general psychopathology subscale score ([1]; bifeprunox 40 mg): −3.8 (10.1)
Change from Baseline in PANSS Positive Symptom Subscale Score, Mean (SD) ([2]; Bifeprunox 20 mg, Week 1): −1.6 (3.7)
Change from Baseline in PANSS Positive Symptom Subscale Score, Median ([2]; Bifeprunox 20 mg, Week 1): −2
Change from Baseline in PANSS Positive Symptom Subscale Score, Mean (SD) ([2]; Bifeprunox 20 mg, Week 2): −3.0 (4.7)
Change from Baseline in PANSS Positive Symptom Subscale Score, Median ([2]; Bifeprunox 20 mg, Week 2): −3
Change from Baseline in PANSS Positive Symptom Subscale Score, Mean (SD) ([2]; Bifeprunox 20 mg, Week 3): −3.8 (5.2)
Change from Baseline in PANSS Positive Symptom Subscale Score, Median ([2]; Bifeprunox 20 mg, Week 3): −3
Change from Baseline in PANSS Positive Symptom Subscale Score, Mean (SD) ([2]; Bifeprunox 20 mg, Week 4): −4.2 (5.7)
Change from Baseline in PANSS Positive Symptom Subscale Score, Median ([2]; Bifeprunox 20 mg, Week 4): −4
Change from Baseline in PANSS Positive Symptom Subscale Score, Mean (SD) [2, 6]: −4.3 (6.1)
Change from Baseline in PANSS Positive Symptom Subscale Score, Median [2, 6]: −4
PANSS Positive Symptom Subscale Score, Trt Effect (bifeprunox—placebo) [2, 6]: −1.1
Change from Baseline in PANSS Positive Symptom Subscale Score, Mean (SD) ([2]; Bifeprunox 30 mg, Week 1): −2.0 (3.8)
Change from Baseline in PANSS Positive Symptom Subscale Score, Median ([2]; Bifeprunox 30 mg, Week 1): −2
Change from Baseline in PANSS Positive Symptom Subscale Score, Mean (SD) ([2]; Bifeprunox 30 mg, Week 2): −2.8 (5.1)
Change from Baseline in PANSS Positive Symptom Subscale Score, Median ([2]; Bifeprunox 30 mg, Week 2): −3
Change from Baseline in PANSS Positive Symptom Subscale Score, Mean (SD) ([2]; Bifeprunox 30 mg, Week 3): −3.6 (6.0)
Change from Baseline in PANSS Positive Symptom Subscale Score, Median ([2]; Bifeprunox 30 mg, Week 3): −4
Change from Baseline in PANSS Positive Symptom Subscale Score, Mean (SD) ([2]; Bifeprunox 30 mg, Week 4): −4.0 (6.3)
Change from Baseline in PANSS Positive Symptom Subscale Score, Median ([2]; Bifeprunox 30 mg, Week 4): −4
Change from Baseline in PANSS Positive Symptom Subscale Score, Mean (SD) [2, 4]: −4.2 (6.8)
Change from Baseline in PANSS Positive Symptom Subscale Score, Median [2, 4]: −5
PANSS Positive Symptom Subscale Score, Trt Effect (bifeprunox—placebo) [2, 4]: −0.7
Change from Baseline in PANSS Negative Symptom Subscale Score, Mean (SD) ([3]; Bifeprunox 20 mg, Week 1, LOCF): −1.5 (3.0)
Change from Baseline in PANSS Negative Symptom Subscale Score, Median ([3]; Bifeprunox 20 mg, Week 1, LOCF): −1
Change from Baseline in PANSS Negative Symptom Subscale Score, Mean (SD) ([3]; Bifeprunox 20 mg, Week 2, LOCF): −2.7 (3.6)
Change from Baseline in PANSS Negative Symptom Subscale Score, Median ([3]; Bifeprunox 20 mg, Week 2, LOCF): −3
Change from Baseline in PANSS Negative Symptom Subscale Score, Mean (SD) ([3]; Bifeprunox 20 mg, Week 3, LOCF): −3.2 (4.4)
Change from Baseline in PANSS Negative Symptom Subscale Score, Median ([3]; Bifeprunox 20 mg, Week 3, LOCF): −3
Change from Baseline in PANSS Negative Symptom Subscale Score, Mean (SD) ([3]; Bifeprunox 20 mg, Week 4, LOCF): −3.3 (4.8)
Change from Baseline in PANSS Negative Symptom Subscale Score, Median ([3]; Bifeprunox 20 mg, Week 4, LOCF): −3
Change from Baseline in PANSS Negative Symptom Subscale Score, Mean (SD) [3, 7]: −3.3 (5.0)
Change from Baseline in PANSS Negative Symptom Subscale Score, Median [3, 7]: −3
Trt Effect (bifeprunox - placebo), PANSS Negative Symptom Subscale Score [3, 7]: −0.9
Change from Baseline in PANSS Negative Symptom Subscale Score, Mean (SD) ([3]; Bifeprunox 30 mg, Week 1, LOCF): −1.3 (4.0)
Change from Baseline in PANSS Negative Symptom Subscale Score, Median ([3]; Bifeprunox 30 mg, Week 1, LOCF): −1
Change from Baseline in PANSS Negative Symptom Subscale Score, Mean (SD) ([3]; Bifeprunox 30 mg, Week 2, LOCF): −1.9 (4.3)
Change from Baseline in PANSS Negative Symptom Subscale Score, Median ([3]; Bifeprunox 30 mg, Week 2, LOCF): −1
Change from Baseline in PANSS Negative Symptom Subscale Score, Mean (SD) ([3]; Bifeprunox 30 mg, Week 3, LOCF): −2.5 (4.8)
Change from Baseline in PANSS Negative Symptom Subscale Score, Median ([3]; Bifeprunox 30 mg, Week 3, LOCF): −2
Change from Baseline in PANSS Negative Symptom Subscale Score, Mean (SD) ([3]; Bifeprunox 30 mg, Week 4, LOCF): −2.6 (5.0)
Change from Baseline in PANSS Negative Symptom Subscale Score, Median ([3]; Bifeprunox 30 mg, Week 4, LOCF): −2
Change from Baseline in PANSS Negative Symptom Subscale Score, Mean (SD) [3, 8]: −3.1 (5.2)
Change from Baseline in PANSS Negative Symptom Subscale Score, Median [3, 8]: −2
Trt Effect (bifeprunox - placebo), PANSS Negative Symptom Subscale Score [3, 8]: −0.6
PANSS Negative Symptom subscale score, treatment effect (bifeprunox—placebo) ([3]; bifeprunox 20 mg): −0.9
mean change (SD) from Baseline to Endpoint in PANSS Negative Symptom subscale score ([3]; bifeprunox 20 mg, LOCF, ITT): −3.3 (5.0)
PANSS Negative Symptom subscale score, treatment effect (bifeprunox—placebo) ([3]; bifeprunox 30 mg): −0.6
